The results in this text go back to patent US10767162B2, “Methods for differentiation” (PRESIDENT AND FELLOWS OF HARVARD COLLEGE, priority 2014, dated 2020).

In the data set the test system is ES cell line that constitutively over-expressed the transcription factor MyoD. It counts as cell-based. To be noted: for effect on Pax3 expression: continuous treatment during differentiation; for effect on MyoG (myogenin) expression: continuous treatment for 7 days, high or low serum; for effect on MyoG (myogenin) expression / effect on MyoG expression under low serum conditions: MyoG measured on Day 7; for effect on MyoG expression under low serum conditions: low serum (2% HS+Insulin). How it is done: Time courses of differentiation were run for 7 days similarly to the previous growth factor withdrawal experiments. MyoD was induced at Day −1, and LIF was removed at Day 0. Cells were kept in either high serum (15% FBS) or low serum (2% HS+Insulin) media throughout the time course. Drug treatments were applied continuously at the designated concentrations for the entire duration of the time course, with daily media change. mRNA expression levels were measured by qRT-PCR. […] All measurements are relative to a DMSO control for the specific condition (i.e. low serum values are still higher than in high serum). L=lethal; drug had strong anti-survival effects so no data was collected. Error bars indicate S.E.M. (n=2).
Perturbations were made both under high and low serum conditions and were extended throughout the time course of differentiation. LY294002 is a potent broad inhibitor of phosphoinositide-3-kinases (PI3Ks), and when applied continuously to ES cells over 7 days induced a significant 2.7 fold increase in Pax3 mRNA expression (FIG. 4). This increase was observed both in high serum and low serum media. […] Myc drives cell cycle progression and growth. […] Both are indirect inhibitors of Myc activity; as yet there are no direct pharmacologic inhibitors of the Myc protein.
The effects of inhibiting cyclin-dependent kinases (kinases that are more centrally involved in cell cycle control) and MAP kinase, which very often is involved in cell cycle regulation, were also examined. Roscovitine is a broad CDK inhibitor that blocks a number of family members, including CDK1, CDK2, and CDK5. After continuous treatment throughout the 7 days of differentiation in the time course, roscovitine had no effect on Pax3 expression (FIG. 4). It also had little effect on the later expression of MyoG, either under high or low serum conditions. […] However, the MAPK inhibitor PD98059, which blocks MEK1/2, had no effect on Pax3 and induced MyoG only under low serum conditions (FIG. 4 bottom). The protein CDK inhibitor p21, which is much more specific than roscovitine, blocks CDK2 and prevents entry into S-phase. In ES cells p21 is expressed at low levels, but gradually increases during the course of ES cell differentiation (13). An mES cell line that constitutively overexpresses the p21 protein bicistronically with a mCherry tag (fused to the C-terminus with a 2A peptide) was developed. […] Thus, within the set of cell cycle inhibitors examined, stage-specific and condition-specific effects on gene expression were observed.
ES culture and differentiation. The ES cells contain MyoD (and associated puromycin resistance marker) expressed from a EF1alpha promoter (5). MyoD could be expressed once a loxP segment inserted between the promoter and transgene was excised by a cre recombinase fused to the estrogen receptor. ES cells were cultured in LIF and standard conditions containing 15% FBS, non-essential amino acids, L-glutamine, penicillin/streptomycin, and beta-mercaptoethanol. To induce MyoD, cells were treated for 24 hrs with 1 μM 4OHT (Sigma) in ES media. Reduced serum media consisted of DMEM and 2% horse serum (Invitrogen) plus 10 μg/ml insulin (to maintain cell survival)(Sigma) with sodium pyruvate and penicillin/streptomycin. During differentiation, cells were treated with 1 μg/ml puromycin continuously to select for cells which maintained MyoD expression. N2B27 components/supplements and Knock-out serum replacement were purchased from Invitrogen. LIF was used at a 1000 U/ml and Bmp4 at 10 ng/ml.
Drugs. The PI3K inhibitor LY294002, Roscovitine, the MEK1/2 inhibitor PD98059, and 10058-F4 were purchased from Sigma. The E2F inhibitor HLM006474 was purchased from Millipore. PD0332991 was purchased from SelleckChem. JQ1 was purchased from ApexBio.
RNA isolation and RT-PCR. RNA was isolated using RNAeasy plus kit (Qiagen). Reverse transcription was performed using iScript™ cDNA synthesis (Bio-rad). […]

Setting [1] is: Pax3 measured on Day 3, relative to DMSO control.

For `CCc1ccc(/C=C2/SC(=S)NC2=O)cc1` [10058-F4], the “effect on MyoG (myogenin) expression” value is given as “suppressive effects”. Also, the “effect on Pax3 expression” value under setting [1] is “suppressive effects”.

On to `CCOc1ccc(C(Nc2ccccn2)c2ccc3ccc(C)nc3c2O)cc1C` (stereo not shown) [HLM006474], for which the “effect on MyoG (myogenin) expression” value is recorded as “suppressed MyoG expression”. Moreover, the “effect on Pax3 expression” value under setting [1] was “induced Pax3”.

Consider `Cc1sc2c(c1C)C(c1ccc(Cl)cc1)=N[C@@H](CC(=O)OC(C)(C)C)c1nnc(C)n1-2` [JQ1], for which the “effect on MyoG (myogenin) expression” value is “later suppression of MyoG expression”. Besides, the “effect on Pax3 expression” value under setting [1] is on record as “an increase in Pax3 early expression”.

As to `O=c1cc(N2CCOCC2)oc2c(-c3ccccc3)cccc12` [LY294002], the “cell survival on continuing treatment” value is reported as “cell death”. Moreover, for the setting “applied continuously over 7 days, observed both in high serum and low serum media, relative to DMSO control, Pax3 measured on Day 3”, the “increase in Pax3 mRNA expression” value came to 2.7 fold.

As for `COc1cccc(-c2cc(=O)c3ccccc3o2)c1N` [PD98059], the “effect on MyoG expression under low serum conditions” value was “induced MyoG”. Further, the “effect on Pax3 expression” value under setting [1] is on record as “no effect”.

Take `CC(=O)c1c(C)c2cnc(Nc3ccc(N4CCNCC4)cn3)nc2n(C2CCCC2)c1=O` [PD0332991]: the “effect on MyoG (myogenin) expression” value is recorded as “lack of effect”. Also, the “effect on Pax3 expression” value under setting [1] is reported as “lack of effect”.

Turning to `CC[C@H](CO)Nc1nc(NCc2ccccc2)c2ncn(C(C)C)c2n1` [roscovitine, Roscovitine], the “effect on MyoG (myogenin) expression” value is reported as “little effect”. For the same molecule, the “effect on Pax3 expression” value under setting [1] was “no effect”.

B1: p21: protein CDK inhibitor, blocks CDK2; constitutively overexpressed in an mES cell line with a mCherry tag (protein, UniProt P39689 2-159, looked up)
Cyclin-dependent kinase …: SNPGDVRPVPHRSKVCRCLFGPVDSEQLRRDCDALMAGCLQEARERWNFDFVTETPLEGNFVWERVRSLGLPKVYLSPGSRSRDDLGGDKRPSTSSALLQGPAPEDHVALSLSCTLVSERPEDSPGGPGTSQGRKRRQTSLTDFYHSKRRLVFCKRKP
modifications: mCherry tag
Turning to B1, the “effect on MyoG expression under low serum conditions” value was “upregulated MyoG”. The “effect on Pax3 expression” value under setting [1] is reported as “no effect”.
